The source of these data is article PMC4111374 (Journal of Medicinal Chemistry, 2014).

One data set concerns the target hERG channel (Homo sapiens, UniProt Q12809). Conditions: for interaction with hERG: [3H]-dofetilide binding assay; for ratio of IC50 for hERG inhibition to IC50 for inhibition of LS174T cell proliferation: human. A general note: The hERG channel carries a current that helps repolarise heart muscle cells.
Data set [1] is described as follows: water solubility of hydrochloride salts. Format: physicochemical.
Data set [2] concerns LS174T colon cancer cells. Briefly: LS174T cell proliferation. Conditions: for IC50: Homo sapiens, LS174T, read-out: inhibition of LS174T cell proliferation IC50, LS174T colon cancer cells, 1 to 300 nM, triplicate. The class given is cell-based.
The conditions of data set [3]: cited from earlier work.
Data set [4] concerns LS174T colon cancer cells. The following applies: earlier report; cited from earlier work.

Sequence of hERG channel (Q12809 whole entry): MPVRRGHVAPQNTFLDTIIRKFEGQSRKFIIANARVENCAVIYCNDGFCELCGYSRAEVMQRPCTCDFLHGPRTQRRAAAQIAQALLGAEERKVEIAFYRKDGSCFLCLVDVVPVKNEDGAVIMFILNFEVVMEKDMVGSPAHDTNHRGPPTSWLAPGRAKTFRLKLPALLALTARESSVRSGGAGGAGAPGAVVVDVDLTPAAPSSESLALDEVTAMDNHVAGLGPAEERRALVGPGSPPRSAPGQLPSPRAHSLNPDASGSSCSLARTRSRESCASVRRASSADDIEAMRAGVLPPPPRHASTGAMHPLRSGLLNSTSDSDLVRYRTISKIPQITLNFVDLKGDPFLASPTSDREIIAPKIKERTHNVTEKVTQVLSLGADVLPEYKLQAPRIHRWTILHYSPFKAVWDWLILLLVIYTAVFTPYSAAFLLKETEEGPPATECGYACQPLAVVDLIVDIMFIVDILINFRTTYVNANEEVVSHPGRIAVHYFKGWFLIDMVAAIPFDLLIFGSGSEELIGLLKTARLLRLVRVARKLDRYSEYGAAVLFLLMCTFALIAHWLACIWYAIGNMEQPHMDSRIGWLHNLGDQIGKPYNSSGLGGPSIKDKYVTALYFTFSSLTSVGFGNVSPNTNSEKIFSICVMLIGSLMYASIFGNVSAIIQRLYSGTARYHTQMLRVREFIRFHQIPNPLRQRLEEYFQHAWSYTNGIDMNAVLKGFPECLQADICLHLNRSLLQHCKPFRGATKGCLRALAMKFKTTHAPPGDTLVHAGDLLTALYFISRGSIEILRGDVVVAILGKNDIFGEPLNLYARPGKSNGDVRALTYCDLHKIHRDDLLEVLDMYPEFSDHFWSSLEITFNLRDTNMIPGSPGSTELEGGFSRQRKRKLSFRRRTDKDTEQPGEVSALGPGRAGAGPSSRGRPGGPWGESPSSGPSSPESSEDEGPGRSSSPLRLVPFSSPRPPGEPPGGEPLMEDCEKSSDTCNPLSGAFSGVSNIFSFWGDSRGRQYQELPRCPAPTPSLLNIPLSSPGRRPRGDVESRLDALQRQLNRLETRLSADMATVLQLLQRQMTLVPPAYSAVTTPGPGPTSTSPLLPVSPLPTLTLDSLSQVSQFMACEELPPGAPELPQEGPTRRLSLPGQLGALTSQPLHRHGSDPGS

For the molecule `CN(C)c1ccc(/C=C/c2c(F)cccc2Cl)cn1` [FIDAS 8a, (E)-5-(2′-Chloro-6′-fluorostyryl)-2-(N,N-dimethylamino)pyridine], on hERG channel, the “interaction with hERG” value was “did not interact appreciably with hERG” and the “ratio of IC50 for hERG inhibition to IC50 for inhibition of LS174T cell proliferation” value (“ratio of IC50 for hERG inhibition” below) is reported as 12.7 × 10^3. Also, the “water solubility of hydrochloride salt” value in data set [1] is reported as “water-soluble”.
As for `CNc1ccc(/C=C/c2c(F)cccc2F)cc1` [FIDAS 1b], on hERG channel, the “interaction with hERG” value is “did not interact appreciably with hERG” and the “ratio of IC50 for hERG inhibition” value is given as 6.5 × 10^3. For the same molecule, the IC50 in data set [2] is under 0.01 µM. In addition, the “IC50 for the inhibition of LS174T cells relative to 1a” value in data set [2] (LS174T cells) came out at 4 fold.
Turning to `CN(C)c1ccc(/C=C/c2c(F)cccc2Cl)nc1` [FIDAS 5a, (E)-2-(2′-Chloro-6′-fluorostyryl)-5-(N,N-dimethylamino)pyridine], the “ratio of IC50 for hERG inhibition” value at hERG channel is reported as 1.0 × 10^3.
The same measure, in the same setting: the value for `CN(C)c1ncc(/C=C/c2c(F)cccc2F)cn1` [FIDAS 10a, (E)-5-(2′,6′-Difluorostyryl)-2-(N,N-dimethylamino)pyrimidine] was 0.5 × 10^3.
On to `CN(C)c1ccc(/C=C/c2c(F)cccc2F)cc1` [FIDAS 1a, (E)-4-(2′,6′-difluorostyryl)-N,N-dimethylaniline], for which the half-life in vivo result in data set [3] is recorded as “reasonable half-life”. Moreover, the oral bioavailability entry in data set [3] (in vivo) is recorded as “good oral bioavailability”. Besides, the “in vitro activity in LS174T cells” value in data set [4] is recorded as “low micromolar range”.
`CNc1ccc(/C=C/c2c(F)cccc2Cl)cn1` [FIDAS 8b, (E)-5-(2′-Chloro-6′-fluorostyryl)-2-(N-methylamino)pyridine]: on hERG channel, the “interaction with hERG” value is “did not interact appreciably with hERG” and the “ratio of IC50 for hERG inhibition” value is reported as 5.0 × 10^3. Further, the “water solubility of hydrochloride salt” value in data set [1] is “water-soluble”.
With `CNc1ccc(/C=C/c2c(F)cccc2Cl)cc1` [FIDAS 2b], at hERG channel, the “interaction with hERG” value is reported as “did not interact appreciably with hERG” and the “ratio of IC50 for hERG inhibition” value is given as 6.6 × 10^3. Further, the IC50 in data set [2] is under 0.01 µM. In addition, in data set [2] (LS174T cells), the “IC50 for the inhibition of LS174T cells relative to 1a” value is reported as 4 fold.
Consider `CN(C)c1ccc(/C=C/c2c(F)cccc2Cl)cc1` [FIDAS 2a], for which the “in vitro activity relative to 3a” value in data set [2] (LS174T cells, relative to 3a) came out at 10 fold.
